Assays:
Experiment in all cases: Fluo-4 calcium flux in transfected HEK293T cells
HaTRPA1 = target: T1, HaTRPA1 (Harmonia axyridis, UniProt Z9S2A3GZC9); assay type: cell-based
T1 construct: full-length in pcDNA3.1(+)-mCherry, HEK293T cells
T1 sequence (Z9S2A3GZC9 1-1276): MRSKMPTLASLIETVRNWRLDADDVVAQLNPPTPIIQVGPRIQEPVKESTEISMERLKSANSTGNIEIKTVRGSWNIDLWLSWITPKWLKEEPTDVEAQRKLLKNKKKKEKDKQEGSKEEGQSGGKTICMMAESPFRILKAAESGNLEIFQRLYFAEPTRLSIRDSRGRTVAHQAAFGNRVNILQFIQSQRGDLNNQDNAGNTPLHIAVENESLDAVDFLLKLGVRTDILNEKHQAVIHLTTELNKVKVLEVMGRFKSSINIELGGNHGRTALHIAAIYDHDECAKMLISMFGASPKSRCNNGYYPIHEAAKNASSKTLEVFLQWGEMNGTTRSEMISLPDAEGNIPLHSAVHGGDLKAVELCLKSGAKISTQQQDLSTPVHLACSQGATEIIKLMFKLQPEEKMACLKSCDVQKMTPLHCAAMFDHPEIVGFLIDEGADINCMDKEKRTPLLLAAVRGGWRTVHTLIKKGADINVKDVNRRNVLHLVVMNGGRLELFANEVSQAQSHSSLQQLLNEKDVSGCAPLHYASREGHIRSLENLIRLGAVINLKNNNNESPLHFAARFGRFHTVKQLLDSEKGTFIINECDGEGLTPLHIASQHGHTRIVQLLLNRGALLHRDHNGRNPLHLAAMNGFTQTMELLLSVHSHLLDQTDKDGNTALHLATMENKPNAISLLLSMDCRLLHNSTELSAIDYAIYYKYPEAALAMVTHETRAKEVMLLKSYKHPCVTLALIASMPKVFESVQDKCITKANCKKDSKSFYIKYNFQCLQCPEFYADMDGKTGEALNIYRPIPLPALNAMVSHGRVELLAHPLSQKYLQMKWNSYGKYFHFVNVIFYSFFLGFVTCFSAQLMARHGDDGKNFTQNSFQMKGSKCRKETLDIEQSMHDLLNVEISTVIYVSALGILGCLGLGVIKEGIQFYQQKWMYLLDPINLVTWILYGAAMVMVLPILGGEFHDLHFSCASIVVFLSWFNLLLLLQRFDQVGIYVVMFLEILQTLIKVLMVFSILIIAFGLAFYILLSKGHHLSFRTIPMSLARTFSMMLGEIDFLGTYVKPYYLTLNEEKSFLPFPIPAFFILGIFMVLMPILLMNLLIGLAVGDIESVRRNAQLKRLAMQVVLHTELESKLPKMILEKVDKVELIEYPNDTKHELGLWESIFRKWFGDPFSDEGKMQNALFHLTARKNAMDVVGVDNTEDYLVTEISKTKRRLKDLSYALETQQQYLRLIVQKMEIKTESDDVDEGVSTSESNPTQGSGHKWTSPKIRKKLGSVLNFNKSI
From the text: Fluo-4 calcium flux in transfected HEK293T cells on HaTRPA1 | Concentration-response curves of nepetalactone-induced calcium signaling in HEK293T cells heterologously expressing HaTRPA1 or PjTRPA1

DcTRPA1 = test system: T2, DcTRPA1; assay type: cell-based, Diaphorina citri; settings: agonist; DMSO as negative control
T2 construct: gene TRPA1; full-length ORF (1073 aa, 14 ankyrin repeats) in pcDNA3.1(+)-mCherry, HEK293T cells

PjTRPA1 = test system: T3, PjTRPA1; assay type: cell-based, Propylea japonica; settings: agonist; DMSO as negative control
T3 construct: gene TRPA1; full-length in pcDNA3.1(+)-mCherry, HEK293T cells
From the text: Fluo-4 calcium flux in transfected HEK293T cells on PjTRPA1 | Concentration-response curves of nepetalactone-induced calcium signaling in HEK293T cells heterologously expressing HaTRPA1 or PjTRPA1

MuTRPA1 = test system: T4, MuTRPA1; assay type: cell-based, Megalurothrips usitatus; settings: agonist; DMSO as negative control
T4 construct: gene TRPA1; full-length ORF (1403 aa, 16 ankyrin repeats) in pcDNA3.1(+)-mCherry, HEK293T cells

CC1=COC(=O)C2C(C)CCC12 (stereo not shown) [nepetalactone]
EC50 (HaTRPA1): 404 µM | EC50 (DcTRPA1): 698 µM | EC50 (PjTRPA1): 128 µM | EC50 (MuTRPA1): 172 µM

From article PMC13001051, “TRPA1-kinase axis polarization: Nepetalactone drives pest repulsion and predator attraction via divergent PKC/CaMKII signaling” (Journal of Advanced Research, 2025)
